Values of other authors as cited in patent US11447440B2, “Treprostinil monohydrate crystals and methods for preparation thereof” (CHIROGATE INTERNATIONAL INC., priority 2020, dated 2022).
Where two headings read alike, the source gives them in different places.

Conditions: for Treprostinil dimer formation on standing: stability tests

Treprostinil dimer formation (accelerated stability tests at 25° C., 30° C. and 40° C. for 6 months (Lot No. 01M07033))	stability in comparison with the anhydrous Treprostinil crystal (storage at room temperature over a long period of time)	Treprostinil dimer formation on standing (at 5° C.)	Treprostinil dimer formation on standing (at higher temperature (than 25° C.))	Treprostinil dimer formation on standing (standing at 25° C.)	SMILES
almost negligible	more stable				CCCCC[C@H](O)CC[C@@H]1[C@H]2Cc3c(cccc3OCC(=O)O)C[C@H]2C[C@H]1O.O [Treprostinil monohydrate crystal]
		negligible	increased	continuing to form	CCCCC[C@H](O)CC[C@@H]1[C@H]2Cc3cccc(OCC(=O)O)c3C[C@H]2C[C@H]1O [anhydrous Treprostinil]
